Source: patent US12371464B2, “Polypeptides and uses thereof” (MEDIMMUNE LIMITED, priority 2020, dated 2025)
Numbered stars: 1 amine (or outer) side, 2 acyl side, 3 side chain; on linkers, the order of the positions; unused ones are H or OH. Bridge positions count the residues as written; N and C are the ends. Square brackets hold non-standard residues; d marks the D form. Side chains are listed from the residue outwards. Peptide text beside a SMILES is read from it. * marks the point of attachment. C18 diacid = O=C(O)CCCCCCCCCCCCCCCCC(=O)*; γGlu = O=C(O)[C@H](CCC(=O)[*:2])N[*:1]; αMeF = C[C@](N)(Cc1ccccc1)C(=O)O; Dab = NCC[C@H](N)C(=O)O; Aib = CC(C)(N)C(=O)O

Experiment: Thioflavin T fibrillation assay
Assay type: physicochemical
Details: 1 mg/mL in 25 mM sodium acetate buffer pH 4.0, 37° C., 6 days, orbital shaking; >144 h = no increase
Excerpt: Peptide aggregation that form fibrils is an indication of physical instability. Fibril formation in solution poses a significant risk for the stability of injectable peptide drug products. Thioflavin T (ThT) fibrillation assay is a useful tool to assess the aggregation kinetics of a peptide or protein under accelerated and stressed conditions that can be used to forecast the long-term viability of a compound in solution. ThT can selectively bind amyloid fibrils and the resultant complex emits strong fluorescence signal at 482 nm when excited at 450 nm (Anal Biochem. 1989 March; 177 (2): 244-9). Monitoring of the change in fluorescence signal is an established method to study the fibril forming potential of peptides and proteins. ThT (purchased from Sigma Aldrich) stock solution is prepared by dissolving the ThT powder in Milli-Q water and filtered to obtain a 0.25 mM solution. The concentration of the solution is measured at 412 nm using an extinction coefficient of 36 mM-1 cm-1. Test peptides were dissolved at 1 mg/mL in 25 mM sodium acetate buffer pH 4.0. 100 μL aliquot of peptide solution and 5 μL aliquot of ThT solution were placed in a clear bottom black fluorescence 96-well plate. 5 replicates of each test samples were placed in the same row of the plate. Buffer was placed in control wells for baseline correction. All empty wells were filled with water to prevent evaporation. The plate was sealed with aluminium seal and placed in fluorescence plate reader and incubated for 6 days at 37° C. with intermittent orbital shaking at 500 to 750 rpm. The fluorescence intensity was measured every 30 min using excitation at 444 nm and emission at 480 nm. The fibril forming potential of the test peptides was determined by measuring the average time taken to detect an increase in baseline corrected fluorescence intensity.

CC[C@H](C)[C@H](NC(=O)[C@@H]1CCCN1C(=O)CNC(=O)[C@](C)(Cc1ccccc1)NC(=O)[C@H](CC(N)=O)NC(=O)[C@H](CC(N)=O)NC(=O)[C@H](CO)NC(=O)[C@H](CO)NC(=O)[C@H](Cc1c[nH]cn1)NC(=O)[C@@H](NC(=O)[C@H](CC(C)C)NC(=O)[C@H](Cc1ccccc1)NC(=O)[C@H](CC(N)=O)NC(=O)[C@H](C)NC(=O)[C@H](CC(C)C)NC(=O)[C@H](CCCNC(=N)N)NC(=O)[C@H](CCC(N)=O)NC(=O)[C@@H](NC(=O)[C@H](C)NC(=O)[C@@H]1CSSC[C@H](NC(=O)[C@@H](N)CCCCNC(=O)CC[C@H](NC(=O)CC[C@H](NC(=O)CCCCCCCCCCCCCCCCC(=O)O)C(=O)O)C(=O)O)C(=O)N[C@@H](CC(N)=O)C(=O)N[C@@H]([C@@H](C)O)C(=O)N[C@@H](C)C(=O)N[C@@H]([C@@H](C)O)C(=O)N1)[C@@H](C)O)C(C)C)C(=O)N[C@@H](CC(C)C)C(=O)N1CCC[C@H]1C(=O)N1CCC[C@H]1C(=O)N[C@H](C(=O)N[C@@H](CC(N)=O)C(=O)N[C@H](C(=O)NCC(=O)N[C@@H](CO)C(=O)N[C@@H](CCCNC(=N)N)C(=O)N[C@H](C(=O)N[C@@H](Cc1ccc(O)cc1)C(N)=O)[C@@H](C)O)C(C)C)[C@@H](C)O [Peptide 21, K(γE-γE-C18diacid)[CNTATC]ATQRLANFLVHSSNN(αMePhe)GPILPPTNVGSRTY-amide] (H-K([γGlu-γGlu-C18 diacid])CNTATCATQRLANFLVHSSNN[αMeF]GPILPPTNVGSRTY-NH2; disulfide 2-7; N-terminus assumed)
Time taken to detect increase in fluorescence intensity: >144 h

CC[C@H](C)[C@H](NC(=O)[C@@H]1CCCN1C(=O)CNC(=O)[C@](C)(Cc1ccccc1)NC(=O)[C@H](CC(N)=O)NC(=O)[C@H](CC(N)=O)NC(=O)[C@H](CO)NC(=O)[C@H](CO)NC(=O)[C@H](Cc1c[nH]cn1)NC(=O)[C@@H](NC(=O)[C@H](CC(C)C)NC(=O)[C@H](Cc1ccccc1)NC(=O)[C@H](CC(N)=O)NC(=O)[C@H](C)NC(=O)[C@H](CC(C)C)NC(=O)[C@H](CCCNC(=N)N)NC(=O)[C@H](CCC(N)=O)NC(=O)[C@@H](NC(=O)[C@H](C)NC(=O)[C@@H]1CSSC[C@H](NC(=O)[C@@H](N)CCCCNC(=O)CC[C@H](NC(=O)CC[C@H](NC(=O)CCCCCCCCCCCCCCCCC(=O)O)C(=O)O)C(=O)O)C(=O)N[C@@H](CC(N)=O)C(=O)N[C@@H]([C@@H](C)O)C(=O)N[C@@H](C)C(=O)N[C@@H]([C@@H](C)O)C(=O)N1)[C@@H](C)O)C(C)C)C(=O)N[C@@H](CC(C)C)C(=O)N1CCC[C@H]1C(=O)N1CCC[C@H]1C(=O)N[C@H](C(=O)N[C@@H](CCCNC(=N)N)C(=O)N[C@H](C(=O)NCC(=O)N[C@@H](CO)C(=O)N[C@@H](CC(N)=O)C(=O)N[C@H](C(=O)N[C@@H](Cc1ccc(O)cc1)C(N)=O)[C@@H](C)O)C(C)C)[C@@H](C)O [Peptide 24, K(γE-γE-C18diacid)[CNTATC]ATQRLANFLVHSSNN(αMePhe)GPILPPTRVGSNTY-amide] (H-K([γGlu-γGlu-C18 diacid])CNTATCATQRLANFLVHSSNN[αMeF]GPILPPTRVGSNTY-NH2; disulfide 2-7; N-terminus assumed)
Time taken to detect increase in fluorescence intensity: >144 h

CC[C@H](C)[C@H](NC(=O)[C@@H]1CCCN1C(=O)CNC(=O)[C@](C)(Cc1ccccc1)NC(=O)[C@H](CC(N)=O)NC(=O)[C@H](CC(N)=O)NC(=O)[C@H](CO)NC(=O)[C@H](CO)NC(=O)[C@H](Cc1c[nH]cn1)NC(=O)[C@@H](NC(=O)[C@H](CC(C)C)NC(=O)[C@H](Cc1ccccc1)NC(=O)[C@H](CC(N)=O)NC(=O)[C@H](C)NC(=O)[C@H](CC(C)C)NC(=O)[C@H](CCCNC(=N)N)NC(=O)[C@H](CCC(N)=O)NC(=O)[C@@H](NC(=O)[C@H](C)NC(=O)[C@@H]1CSSC[C@H](NC(=O)[C@@H](N)CCCCNC(=O)CC[C@H](NC(=O)CCCCCCCCCCCCCCCCC(=O)O)C(=O)O)C(=O)N[C@@H](CC(N)=O)C(=O)N[C@@H]([C@@H](C)O)C(=O)N[C@@H](C)C(=O)N[C@@H]([C@@H](C)O)C(=O)N1)[C@@H](C)O)C(C)C)C(=O)N[C@@H](CC(C)C)C(=O)N1CCC[C@H]1C(=O)N1CCC[C@H]1C(=O)N[C@H](C(=O)N[C@@H](CCCNC(=N)N)C(=O)N[C@H](C(=O)NCC(=O)N[C@@H](CO)C(=O)N[C@@H](CC(N)=O)C(=O)N[C@H](C(=O)N[C@@H](Cc1ccc(O)cc1)C(N)=O)[C@@H](C)O)C(C)C)[C@@H](C)O [Peptide 25, K(γE-C18diacid)[CNTATC]ATQRLANFLVHSSNN(αMePhe)GPILPPTRVGSNTY-amide] (H-K([γGlu-C18 diacid])CNTATCATQRLANFLVHSSNN[αMeF]GPILPPTRVGSNTY-NH2; disulfide 2-7; N-terminus assumed)
Time taken to detect increase in fluorescence intensity: >144 h

CC[C@H](C)[C@H](NC(=O)[C@@H]1CCCN1C(=O)CNC(=O)[C@H](Cc1ccccc1)NC(=O)[C@H](CC(N)=O)NC(=O)[C@H](CCN)NC(=O)[C@H](CO)NC(=O)[C@H](CO)NC(=O)[C@H](Cc1c[nH]cn1)NC(=O)[C@@H](NC(=O)[C@H](CC(C)C)NC(=O)[C@H](Cc1ccccc1)NC(=O)[C@H](CC(N)=O)NC(=O)[C@H](C)NC(=O)[C@H](CC(C)C)NC(=O)[C@H](CCCNC(=N)N)NC(=O)[C@H](CCC(N)=O)NC(=O)[C@@H](NC(=O)[C@H](C)NC(=O)[C@@H]1CSSC[C@H](NC(=O)[C@H](CCCCN)NC(=O)[C@@H](N)CCCCNC(=O)CC[C@H](NC(=O)CCCCCCCCCCCCCCCCC(=O)O)C(=O)O)C(=O)N[C@@H](CC(N)=O)C(=O)N[C@@H]([C@@H](C)O)C(=O)N[C@@H](C)C(=O)N[C@@H]([C@@H](C)O)C(=O)N1)[C@@H](C)O)C(C)C)C(=O)N[C@@H](CC(C)C)C(=O)N1CCC[C@H]1C(=O)N1CCC[C@H]1C(=O)N[C@H](C(=O)N[C@@H](CCC(=O)O)C(=O)N[C@H](C(=O)NCC(=O)N[C@@H](CO)C(=O)N[C@@H](CC(N)=O)C(=O)N[C@H](C(=O)N[C@@H](Cc1ccc(O)cc1)C(N)=O)[C@@H](C)O)C(C)C)[C@@H](C)O [Peptide 28, K(γE-C18diacid)K[CNTATC]ATQRLANFLVHSS(Dab)NFGPILPPTEVGSNTY-amide] (H-K([γGlu-C18 diacid])KCNTATCATQRLANFLVHSS[Dab]NFGPILPPTEVGSNTY-NH2; disulfide 3-8; N-terminus assumed)
Time taken to detect increase in fluorescence intensity: 45 h

CC[C@H](C)[C@H](NC(=O)[C@@H]1CCCN1C(=O)CNC(=O)[C@H](Cc1ccccc1)NC(=O)[C@H](CC(N)=O)NC(=O)[C@H](CC(N)=O)NC(=O)[C@H](CO)NC(=O)[C@H](CO)NC(=O)[C@H](Cc1c[nH]cn1)NC(=O)[C@@H](NC(=O)[C@H](CC(C)C)NC(=O)[C@H](Cc1ccccc1)NC(=O)[C@H](CCN)NC(=O)[C@H](C)NC(=O)[C@H](CC(C)C)NC(=O)[C@H](CCCNC(=N)N)NC(=O)[C@H](CCC(N)=O)NC(=O)[C@@H](NC(=O)[C@H](C)NC(=O)[C@@H]1CSSC[C@H](NC(=O)[C@H](CCCCN)NC(=O)[C@@H](N)CCCCNC(=O)CC[C@H](NC(=O)CCCCCCCCCCCCCCCCC(=O)O)C(=O)O)C(=O)N[C@@H](CC(N)=O)C(=O)N[C@@H]([C@@H](C)O)C(=O)N[C@@H](C)C(=O)N[C@@H]([C@@H](C)O)C(=O)N1)[C@@H](C)O)C(C)C)C(=O)N[C@@H](CC(C)C)C(=O)N1CCC[C@H]1C(=O)N1CCC[C@H]1C(=O)N[C@H](C(=O)N[C@@H](CC(N)=O)C(=O)N[C@H](C(=O)NCC(=O)N[C@@H](CO)C(=O)N[C@@H](CC(N)=O)C(=O)N[C@H](C(=O)N[C@@H](Cc1ccc(O)cc1)C(N)=O)[C@@H](C)O)C(C)C)[C@@H](C)O [Peptide 33] (H-K([γGlu-C18 diacid])KCNTATCATQRLA[Dab]FLVHSSNNFGPILPPTNVGSNTY-NH2; disulfide 3-8; N-terminus assumed)
Time taken to detect increase in fluorescence intensity: >144 h

CC[C@H](C)[C@H](NC(=O)[C@@H]1CCCN1C(=O)CNC(=O)[C@H](Cc1ccccc1)NC(=O)[C@H](CC(N)=O)NC(=O)C(C)(C)NC(=O)[C@H](CO)NC(=O)[C@H](CO)NC(=O)[C@H](Cc1c[nH]cn1)NC(=O)[C@@H](NC(=O)[C@H](CC(C)C)NC(=O)[C@H](Cc1ccccc1)NC(=O)[C@H](CC(N)=O)NC(=O)[C@H](C)NC(=O)[C@H](CC(C)C)NC(=O)[C@H](CCCNC(=N)N)NC(=O)[C@H](CCC(N)=O)NC(=O)[C@@H](NC(=O)[C@H](C)NC(=O)[C@@H]1CSSC[C@H](NC(=O)[C@H](CCCCN)NC(=O)[C@@H](N)CCCCNC(=O)CC[C@H](NC(=O)CCCCCCCCCCCCCCCCC(=O)O)C(=O)O)C(=O)N[C@@H](CC(N)=O)C(=O)N[C@@H]([C@@H](C)O)C(=O)N[C@@H](C)C(=O)N[C@@H]([C@@H](C)O)C(=O)N1)[C@@H](C)O)C(C)C)C(=O)N[C@@H](CC(C)C)C(=O)N1CCC[C@H]1C(=O)N1CCC[C@H]1C(=O)N[C@H](C(=O)N[C@@H](Cc1c[nH]cn1)C(=O)N[C@H](C(=O)NCC(=O)N[C@@H](CO)C(=O)N[C@@H](CC(N)=O)C(=O)N[C@H](C(=O)N[C@@H](Cc1ccc(O)cc1)C(N)=O)[C@@H](C)O)C(C)C)[C@@H](C)O [Peptide 40, K(γE-C18diacid)K[CNTATC]ATQRLANFLVHSS(Aib)NFGPILPPTHVGSNTY-amide] (H-K([γGlu-C18 diacid])KCNTATCATQRLANFLVHSS[Aib]NFGPILPPTHVGSNTY-NH2; disulfide 3-8; N-terminus assumed)
Time taken to detect increase in fluorescence intensity: >144 h
